Data on one molecule can be found in PMC8533363, “Effective Perturbations on the Amplitude and Hysteresis of Erg-Mediated Potassium Current Caused by 1-Octylnonyl 8-[(2-hydroxyethyl)[6-oxo-6(undecyloxy)hexyl]amino]-octanoate (SM-102), a Cationic Lipid” (Biomedicines, 2021).

This data set has as its target T1, erg-mediated K+ (Kerg, KV11) channel (Rattus norvegicus, UniProt O08962).
T1 construct: gene Kcnh2; native channel in GH3 pituitary tumor cells
T1 sequence (O08962 1-1163): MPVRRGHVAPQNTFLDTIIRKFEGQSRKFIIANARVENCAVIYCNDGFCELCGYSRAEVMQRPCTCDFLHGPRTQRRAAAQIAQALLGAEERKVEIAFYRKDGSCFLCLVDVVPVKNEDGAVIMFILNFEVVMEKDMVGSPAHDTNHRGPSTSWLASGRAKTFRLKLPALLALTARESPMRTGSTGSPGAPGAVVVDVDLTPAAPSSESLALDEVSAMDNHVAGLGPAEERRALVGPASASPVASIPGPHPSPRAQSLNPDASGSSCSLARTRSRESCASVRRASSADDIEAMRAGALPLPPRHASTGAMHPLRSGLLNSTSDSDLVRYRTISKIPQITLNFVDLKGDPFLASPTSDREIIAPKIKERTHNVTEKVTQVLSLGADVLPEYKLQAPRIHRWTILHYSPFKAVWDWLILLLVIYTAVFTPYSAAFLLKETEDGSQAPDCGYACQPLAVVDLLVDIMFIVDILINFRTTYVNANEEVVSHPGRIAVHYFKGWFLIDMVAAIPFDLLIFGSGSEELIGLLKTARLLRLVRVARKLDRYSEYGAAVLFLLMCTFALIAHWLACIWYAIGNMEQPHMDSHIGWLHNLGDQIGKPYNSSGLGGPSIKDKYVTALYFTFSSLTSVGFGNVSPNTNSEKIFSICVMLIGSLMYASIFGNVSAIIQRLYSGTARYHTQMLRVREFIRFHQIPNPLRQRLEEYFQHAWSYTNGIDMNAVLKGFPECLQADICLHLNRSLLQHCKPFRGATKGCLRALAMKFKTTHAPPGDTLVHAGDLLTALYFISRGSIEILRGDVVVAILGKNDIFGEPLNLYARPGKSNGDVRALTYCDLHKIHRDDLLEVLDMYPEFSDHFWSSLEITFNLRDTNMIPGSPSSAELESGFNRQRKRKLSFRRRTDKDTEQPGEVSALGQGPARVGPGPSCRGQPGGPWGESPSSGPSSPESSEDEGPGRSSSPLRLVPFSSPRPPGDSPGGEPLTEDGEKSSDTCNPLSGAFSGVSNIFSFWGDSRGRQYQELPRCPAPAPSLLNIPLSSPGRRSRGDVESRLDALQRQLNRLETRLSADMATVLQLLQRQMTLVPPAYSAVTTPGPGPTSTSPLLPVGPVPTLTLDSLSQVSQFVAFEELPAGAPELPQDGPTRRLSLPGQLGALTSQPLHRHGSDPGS
Briefly: whole-cell patch clamp of native IK(erg) in GH3 cells; concentration-response and deactivation kinetics (KD […]). It counts as cell-based. In general terms: Patch clamp records ionic current or voltage across a cell membrane.

SMILES strings stand for the structures.

A word on the IC50: it is the midpoint of a concentration-inhibition curve. A higher IC50 goes with weaker potency in that assay. As to `CCCCCCCCCCCOC(=O)CCCCCN(CCO)CCCCCCCC(=O)OC(CCCCCCCC)CCCCCCCC` [SM-102, 1-octylnonyl 8-[(2-hydroxyethyl)[6-oxo-6-(undecyloxy)hexyl]amino]-octanoate], half-maximal inhibition (IC50) required 108 µM.
